The source of these data is patent US9371328B2, “Imidazopyridazinecarbonitriles useful as kinase inhibitors” (BRISTOL-MYERS SQUIBB COMPANY, priority 2008, dated 2016).

Experiment [1] deals with T1, CK2A1 (CK2α/β) (Homo sapiens, UniProt P68400).
T1 construct: made in house
Description: CK2 kinase assay, CK2A1 (CK2α/β). The following applies: Table 1; read-out: CK2A1 (CK2α/β) (IC50). In kind it is biochemical. How it is done: (§1) The effectiveness of compounds of the present invention as inhibitors of protein kinases can be readily tested by assays known to those skilled in the art. For example, in vitro protein kinase assays may be conducted with a relevant purified protein kinase and an appropriate synthetic substrate to determine the inhibitory activity of the compounds. […] Reaction mixtures were incubated at 30° C. for 1 hour, and reaction products were captured by binding to phosphocellulose (P81) filter plates. Incorporation of radioactive phosphate into the peptide substrate was determined by liquid scintillation counting. The potency of compounds in inhibiting CK2 is expressed as IC50, defined as the concentrations of compounds required to inhibit the enzymatic activity by 50%.
(§2) The inhibitory activity of the instant compounds may also be measured by recombinant CK2 holoenzyme kinase assays. The assays were performed in U-bottom 384-well plates. The final assay volume was 30 μl prepared from 15 μl additions of enzyme and substrates (fluoresceinated peptide FL-RRRADDSDDDDD-NH2 and ATP) and test compounds in assay buffer (20 mM HEPES pH 7.4, 10 mM MgCl2, 100 mM NaCl, 0.015% Brij35 and 0.25 mM DTT). The reaction was initiated by the combination of bacterially expressed, CK2 α/β or CK2 α′/β holoenzyme with substrates and test compounds. The reaction was incubated at room temperature for 60 minutes and terminated by adding 30 μl of 35 mM EDTA to each sample. The reaction mixture was analyzed on the Caliper LABCHIP® 3000 (Caliper, Hopkinton, Mass.) by electrophoretic separation of the fluorescent substrate and phosphorylated product. Inhibition data were calculated by comparison to no enzyme control reactions for 100% inhibition and vehicle-only reactions for 0% inhibition. The final concentration of reagents in the CK2 α/β assay was 25 μM ATP, 1.5 μM FL-RRRADDSDDDDD-NH2, […] CK2 α/β holoenzyme, and 1.6% DMSO. The final concentration of reagents in the CK2 α′/β assay was 10 μM ATP, 1.5 μM FL-RRRADDSDDDDD-NH2, 100 pM CK2 α′/β holoenzyme, and 1.6% DMSO. Dose response curves were generated to determine the concentration required inhibiting 50% of kinase activity (IC50). Compounds were dissolved at 10 mM in dimethylsulfoxide (DMSO) and evaluated at eleven concentrations. IC50 values were derived by non-linear regression analysis.

In experiment [2] the target is T2, CK2A2 (CK2α′/β) (Homo sapiens, UniProt P19784).
T2 construct: made in house
Description: CK2 kinase assay, CK2A2 (CK2α′/β). To be noted: Table 1; read-out: CK2A2 (CK2α′/β) (IC50). Type of experiment: biochemical. The procedure:
as §1, §2

Experiment [3] has as its system HCT116. Description: Cell proliferation inhibition assay (MTT/MTS). Type of experiment: cell-based. The following applies: Homo sapiens, HCT-116, Table 1, 72 h with compound. The procedure:
Compounds were evaluated for their ability to inhibit cell proliferation, using an assay that measures mitochondrial metabolic activity, that is directly correlated with cell numbers. Cells were plated at 2000 cells/well in 96-well plates and were cultured for 24 h in RPMI-1640 supplemented with 2% fetal bovine serum, before test compounds were added. Compounds were diluted in culture medium such that the final concentration of dimethyl sulfoxide never exceeded 1%. Following the addition of compounds, the cells were cultured for an additional 72 h before cell viability was determined by measuring the conversion of 3-(4,5-dimethylthiazol-2-yl)-2,5-diphenyltetrazolium bromide (MTT) dye using the CellTiter96 kit (Promega) or by measuring the conversion of [3-(4,5-dimethylthiazol-2-yl)-5-(3-carboxymethoxyphenyl)-2-(4-sulfophenyl)-2H-tetrazolium (MTS) dye using the CELLTITER 96® AQueous (Promega).

T1 sequence (P68400 whole entry, species assumed): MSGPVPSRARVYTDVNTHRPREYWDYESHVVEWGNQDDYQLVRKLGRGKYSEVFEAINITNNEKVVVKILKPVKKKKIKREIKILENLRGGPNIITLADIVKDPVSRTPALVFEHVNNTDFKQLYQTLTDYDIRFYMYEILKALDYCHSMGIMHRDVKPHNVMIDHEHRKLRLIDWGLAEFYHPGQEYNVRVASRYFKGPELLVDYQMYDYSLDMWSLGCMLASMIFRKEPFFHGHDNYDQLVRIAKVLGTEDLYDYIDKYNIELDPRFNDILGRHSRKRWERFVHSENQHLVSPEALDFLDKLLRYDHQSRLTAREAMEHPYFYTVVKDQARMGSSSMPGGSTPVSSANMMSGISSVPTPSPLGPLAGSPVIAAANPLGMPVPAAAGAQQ
T1 sequence (P67870 whole entry partner, species assumed): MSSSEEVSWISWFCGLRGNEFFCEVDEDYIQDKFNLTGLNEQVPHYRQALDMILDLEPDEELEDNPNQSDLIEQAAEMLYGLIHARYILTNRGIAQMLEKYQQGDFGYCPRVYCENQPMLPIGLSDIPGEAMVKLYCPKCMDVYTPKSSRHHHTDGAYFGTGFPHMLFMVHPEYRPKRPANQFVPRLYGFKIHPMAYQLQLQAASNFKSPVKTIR
T2 sequence (P19784 whole entry, species assumed): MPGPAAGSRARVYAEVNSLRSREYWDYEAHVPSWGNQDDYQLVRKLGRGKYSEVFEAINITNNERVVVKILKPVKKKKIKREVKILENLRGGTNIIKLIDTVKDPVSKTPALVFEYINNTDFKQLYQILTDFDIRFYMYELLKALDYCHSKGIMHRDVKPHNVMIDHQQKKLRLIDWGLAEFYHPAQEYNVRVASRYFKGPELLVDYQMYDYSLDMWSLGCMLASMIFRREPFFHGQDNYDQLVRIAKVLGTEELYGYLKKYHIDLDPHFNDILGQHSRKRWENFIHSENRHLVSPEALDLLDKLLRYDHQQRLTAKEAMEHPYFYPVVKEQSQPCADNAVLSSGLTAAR
T2 sequence (P67870 whole entry partner, species assumed): as the sequence (P67870 whole entry partner, species assumed) above

On to `Cc1cc(Cl)c(Nc2cc(Nc3ccccn3)c3ncc(C#N)n3n2)cc1C#N` [Example 233, 6-((2-Chloro-5-cyano-4-methylphenyl)amino)-8-(2-pyridinylamino)imidazo[1,2-b]pyridazine-3-carbonitrile], for which the IC50 in experiment [1] turned out to be 7.1 nM; in experiment [2], 2.3 nM; in experiment [3], 128 nM.
For `CCc1ccc(Nc2cc(NC3CC3)c3ncc(C#N)n3n2)cc1NS(C)(=O)=O` [Example 235, N-(5-((3-Cyano-8-(cyclopropylamino)imidazo [1,2-b]pyridazin-6-yl)amino)-2-ethylphenyl) methanesulfonamide], the values for the IC50 in experiment [1], in experiment [2] and in experiment [3] were 25 nM, 6.4 nM and 433 nM, respectively.
Consider `CCN(CC)c1ccc(Nc2cc(NC3CC3)c3ncc(C#N)n3n2)cc1` [Example 244, 8-(Cyclopropylamino)-6-((4-(diethylamino)phenyl)amino)imidazo[1,2-b]pyridazine-3-carbonitrile], for which the IC50 in experiment [1] is 102 nM; in experiment [2], 22.8 nM; in experiment [3] it was 1110 nM.
